Reference: patent US20080300298A1, “Honokiol Derivates For the Treatment of Proliferative Disorders” (priority 2005, published 2008)
Read-outs that look alike come from different tables or passages of the source.

What was measured:
MCF-7 cells = assay: Cell cycle assay (PI); assay type: cell-based; conditions: 24 hours (control 26%)
Procedure: (§1) Cell cycle assays: 5×10^6 cells were cultured in the appropriate culture media containing 10% FCS, and treated with either control vehicle or various concentrations of HNK as indicated for 24 h. Following treatment, the cells were harvested, fixed in methanol and stained with propidium iodide (PI, Abcam, Cambridge, Mass.). Flow cytometry was performed at the Flow Cytometry Core facility of Cedars-Sinai Medical Center, using FACScan (Becton Dickinson, Franklin Lakes, N.J.).
(§2) HNK slows cell cycle in breast cancer cell lines. The effects of HNK (10 μM or 30 μM HNK for 24 hours) on cell cycle were evaluated in MCF-7 and MDA-MB-231 cells. These doses of HNK are less than the LC50 for both cell lines. […] Expression of proteins involved in G1 cell-cycle regulation (massgue) was examined in MDA-MB-231 cells using Western analysis.

MDA-MB-231 cells = assay: Cell cycle assay (PI); assay type: cell-based; conditions: 24 hours (control 26%)
Procedure: as §1, §2

rat papillary muscles = assay: glucose uptake by insulin
[1] = tested on: STAT-3, ERK and Akt phosphorylation in MM.1S cells; assay: Western blotting of IL-6 / IGF-1 growth signaling; assay type: cell-based, human; conditions: 10 ug/ml HNK for 3 and 6 h, then IL-6 (10 ng/ml) or IGF-1 (25 ng/ml)
splenic B cells = assay: CD40 mediated cytokine production of splenic B cells from treated mice; assay type: in vivo, C57BL/6 or mCD40-LMP1 Tg mice; conditions: honokiol 3 mg/day, day 21-70
Procedure: CD40 mediated IL-6 and TNF-alpha production was also evaluated. […] IL-6 in culture supernatants was assessed by ELISA. Mice were assessed 70 days post-immunization with CII/CF or CFA only (or naïve). Some mice received honokiol (3 mg/day) from day 21-70 post-immunization. […] TNF-a in culture supermatants was assessed by ELISA. Mice were assessed 70 days post-immunization with CII/CF or CFA only (or naïve). Some mice received honokiol (3 mg/day) from day 21-70 post-immunization. […] In LMP1 Tg mice, even negative control mice have lowered IL-6 and TNF-alpha responses. However, IL-10 was not affected, as determined by analyzing the role of Honokiol treatment on B cell IL-10 production. […] IL-10 in culture supermatants was assessed by ELISA. Mice were assessed 70 days post-immunization with CII/CF or CFA only (or naïve). Some mice received honokiol (3 mg/day) from day 21-70 post-immunization.

MM.1S cells = assay: cells; assay type: cell-based; conditions: Homo sapiens, MM1.S, read-out: percentage of nonviable cells by trypan blue exclusion
Procedure: Assessment of HNK-induced cytotoxicity against patient MM cells: Cytotoxicity of HNK against fresh MM cells was determined as previously determined, see, for example, Mitsiades et al Cancer Cell. 2004; 5:221-230. Fresh MNCs separated from bone marrow samples derived from patients with MM were incubated with PE-conjugated anti-CD138 antibody and/or FITC-conjugated anti-CD38 antibody (BD Biosciences, San Diego, Calif.) for 30 minutes on ice and washed, followed by analysis using EPICS XL flow cytometer (Beckman Coulter, Hialeah, Fla.). A CD38^high fraction enriched for MM cells was determined in side and forward scatter panel in each case. The expression of CD138 on gated cells was also evaluated. After HNK-treatment for 48 h, cells were harvested and percentage of CD38^high cells with or without HNK-treatment was evaluated. […] Cells were stained with propidium iodide (PI; 50 μg/mL; Sigma, St Louis, Mo.), and cell cycle profile was determined by using the program M software on an EPICS XL flow cytometer (Beckman Coulter, Hialeah, Fla.). […] Fluorescence intensity of TUNEL and APO 2.7 staining was determined using on EPICS XL flow cytometer. Cytotoxicity was determined by trypan blue exclusion assay. […] Cell growth and induction of apoptosis were determined both by colorimetric assay and now cytometric detection of APO2.7 after 48 h treatment. […] DNA synthesis was measured by [^3H]-thymidine uptake. […]

C=CCc1ccc(O)c(-c2ccc(O)c(CC=C)c2)c1 [HNK, Honokiol]
cells in S-phase (MCF-7 cells; MCF-7, 10 μM): 20% | cells in S-phase (MCF-7 cells; MCF-7, 30 μM): 20% | cells in S-phase (MDA-MB-231 cells; MDA-MB-231, 10 μM): 15% | cells in S-phase (MDA-MB-231 cells; MDA-MB-231, 30 μM): 10% | glucose uptake by insulin (rat papillary muscles): potentiates glucose uptake by insulin | phosphorylation induced by IL-6 and IGF-1 [1]: significantly reduced phosphorylation of STAT-3, ERK and Akt induced by IL-6, as well as ERK and Akt induced by IGF-1 | CD40 mediated IL-6 production (splenic B cells): CD40 mediated IL-6 production is decreased | CD40 mediated TNF-alpha production (splenic B cells): CD40 mediated TNF-alpha production is decreased | cytotoxicity at 10 µg/mL (MM.1S cells; 24 h): 30.7 ± 5.5% | cytotoxicity at 10 µg/mL (MM.1S cells): 27.6 ± 6.4%
